Tests used:
[1] = Dynamic Vapor Sorption (DVS): hygroscopicity and sorption properties; assay type: physicochemical; conditions: for hygroscopicity classification: 25° C., European Pharmacopeia classification where stated
Description: Dynamic Vapor Sorption (DVS) was performed using a Hiden Analytical Instruments IGAsorp Vapor Sorption Balance. Approximately 30 mg of sample was placed into a wire-mesh Vapor sorption balance pan, loaded into the IGAsorp Vapor sorption balance and held at 25° C.±0.1° C. The sample was subjected to a step profile from 0 to 90% RH at 10% increments, followed by desorption from 80% RH to 0% RH at 10% increments. The equilibrium criterion was set to 99.0% step completion within a minimum of […] and a maximum of 5 hours for each increment. The weight change during the sorption cycle was monitored, allowing for the hygroscopic nature of the sample to be determined. The data collection interval was in seconds.

[2] = BCS classification / solubility in initial development experiments; assay type: physicochemical; conditions: free base; in water
[3] = permeability (BCS classification) in initial development experiments; assay type: in vitro ADME; conditions: free base
[4] = physical stability of amorphous material under stress conditions (temperature, relative humidity); assay type: physicochemical; conditions: 100° C. for 4 days

Structure (SMILES): COc1cc2nccc(Oc3ccc(NC(=O)C4(C(=O)Nc5ccc(F)cc5)CC4)cc3)c2cc1OC [Compound 1 Form XXVIII, N-{4-[(6,7-dimethoxyquinolin-4-yl)oxy]phenyl}-N′-(4-fluorophenyl) cyclopropane-1,1-dicarboxamide]
- weight gain between 0% RH and 80% RH (in words) ([1]; DVS): very small weight gain
- hygroscopicity classification ([1]; DVS): non-hygroscopic

Structure (SMILES): COc1cc2nccc(Oc3ccc(NC(=O)C4(C(=O)Nc5ccc(F)cc5)CC4)cc3)c2cc1OC [Compound 1 Form III, N-{4-[(6,7-dimethoxyquinolin-4-yl)oxy]phenyl}-N′-(4-fluorophenyl) cyclopropane-1,1-dicarboxamide]
- weight gain between 0% RH and 80% RH (in words) ([1]; DVS): very small weight gain
- hygroscopicity classification ([1]; DVS): non-hygroscopic

Structure (SMILES): COc1cc2nccc(Oc3ccc(NC(=O)C4(C(=O)Nc5ccc(F)cc5)CC4)cc3)c2cc1OC [Compound 1 Form XXXI, N-{4-[(6,7-dimethoxyquinolin-4-yl)oxy]phenyl}-N′-(4-fluorophenyl) cyclopropane-1,1-dicarboxamide]
- weight lost on drying to 0% RH ([1]; DVS, sample dried at 0% RH before sorption and desorption): −7%

Structure (SMILES): COc1cc2nccc(Oc3ccc(NC(=O)C4(C(=O)Nc5ccc(F)cc5)CC4)cc3)c2cc1OC [Compound 1, N-{4-[(6,7-dimethoxyquinolin-4-yl)oxy]phenyl}-N′-(4-fluorophenyl) cyclopropane-1,1-dicarboxamide]
- solubility [2]: low solubility
- permeability [3]: high permeability

Structure (SMILES): COc1cc2nccc(Oc3ccc(NC(=O)C4(C(=O)Nc5ccc(F)cc5)CC4)cc3)c2cc1OC [Compound 1 Form XXX, N-{4-[(6,7-dimethoxyquinolin-4-yl)oxy]phenyl}-N′-(4-fluorophenyl) cyclopropane-1,1-dicarboxamide]
- hygroscopicity classification ([1]; DVS): hygroscopic

Structure (SMILES): COc1cc2nccc(Oc3ccc(NC(=O)C4(C(=O)Nc5ccc(F)cc5)CC4)cc3)c2cc1OC [Compound 1 Amorphous Form, N-{4-[(6,7-dimethoxyquinolin-4-yl)oxy]phenyl}-N′-(4-fluorophenyl) cyclopropane-1,1-dicarboxamide]
- physical stability to heat stressing [4]: stable
- water uptake at 90% RH ([1]; DVS): approximately 5%
- hygroscopicity classification ([1]; DVS): hygroscopic
- total weight gain between 0% RH and 80% RH ([1]; DVS, sample dried at 0% RH first): 4 % w/w
- crystallization by XRPD of the sample post DVS ([1]; after the DVS cycle): no crystallization had occurred

Structure (SMILES): COc1cc2nccc(Oc3ccc(NC(=O)C4(C(=O)Nc5ccc(F)cc5)CC4)cc3)c2cc1OC [Compound 1 Form I, N-{4-[(6,7-dimethoxyquinolin-4-yl)oxy]phenyl}-N′-(4-fluorophenyl) cyclopropane-1,1-dicarboxamide]
- weight gain between 40% RH and 90% RH ([1]; DVS): very small weight gain
- hygroscopicity classification ([1]; DVS): non-hygroscopic
- stability at higher humidity ([1]; DVS, 40% RH to 90% RH): stable
